The target in data set [1] is T1, Glucose-dependent insulinotropic receptor (Homo sapiens, UniProt Q8TDV5).
T1 sequence (Q8TDV5 whole entry): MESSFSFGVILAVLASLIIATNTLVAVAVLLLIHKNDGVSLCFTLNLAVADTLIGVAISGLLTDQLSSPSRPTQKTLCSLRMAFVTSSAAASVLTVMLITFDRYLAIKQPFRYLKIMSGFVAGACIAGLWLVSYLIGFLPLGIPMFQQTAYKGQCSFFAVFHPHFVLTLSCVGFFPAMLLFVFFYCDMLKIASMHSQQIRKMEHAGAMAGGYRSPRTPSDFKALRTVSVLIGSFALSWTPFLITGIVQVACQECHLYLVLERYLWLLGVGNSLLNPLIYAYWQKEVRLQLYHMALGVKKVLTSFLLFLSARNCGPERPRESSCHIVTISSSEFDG
Kind of data set: Agonist activity at human GPR119 transfected in HEK293 cells assessed as cAMP accumulation after 45 mins incubation by HTRF assay. It counts as functional, cell-based. In general terms: cAMP levels reflect the balance of adenylyl cyclase and phosphodiesterase activity.

The nature of data set [2]: physchem. Particulars: aqueous phosphate buffer, pH 7.4.
Data set [3] can be described thus: in vitro. Particulars: human, liver microsomes.
In data set [4] the target is T2, Glucose-dependent insulinotropic receptor (Mus musculus, UniProt Q7TQP3).
T2 sequence (Q7TQP3 whole entry): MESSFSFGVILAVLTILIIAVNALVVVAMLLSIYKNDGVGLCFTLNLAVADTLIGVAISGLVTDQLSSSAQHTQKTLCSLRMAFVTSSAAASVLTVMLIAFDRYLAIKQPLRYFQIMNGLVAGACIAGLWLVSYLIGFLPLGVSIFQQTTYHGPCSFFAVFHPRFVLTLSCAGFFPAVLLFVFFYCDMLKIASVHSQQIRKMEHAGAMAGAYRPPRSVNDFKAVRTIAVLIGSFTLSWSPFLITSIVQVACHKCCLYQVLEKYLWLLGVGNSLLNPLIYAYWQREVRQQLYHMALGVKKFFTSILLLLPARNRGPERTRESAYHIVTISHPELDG
Kind of data set: Agonist activity at mouse GPR119 transfected in HEK293 cells assessed as cAMP accumulation after 45 mins incubation by HTRF assay. It counts as functional, cell-based.

A short description of data set [5]: physchem. Particulars: octanol/phosphate buffer, pH 7.4.
Data set [6] addresses Voltage-gated inwardly rectifying potassium channel KCNH2 (Homo sapiens, UniProt Q12809). Kind of data set: Inhibition of human ERG.
Data set [7] addresses Cytochrome P450 2D6 (Homo sapiens, UniProt P10635). Kind of data set: Inhibition of CYP2D6 (unknown origin). It counts as ADME.
In data set [8] the target is Cytochrome P450 2C19 (Homo sapiens, UniProt P33261). In words: Inhibition of CYP2C19 (unknown origin). It counts as ADME.
In data set [9] the target is T3, Cytochrome P450 1A2 (Homo sapiens, UniProt P05177).
T3 sequence (P05177 whole entry): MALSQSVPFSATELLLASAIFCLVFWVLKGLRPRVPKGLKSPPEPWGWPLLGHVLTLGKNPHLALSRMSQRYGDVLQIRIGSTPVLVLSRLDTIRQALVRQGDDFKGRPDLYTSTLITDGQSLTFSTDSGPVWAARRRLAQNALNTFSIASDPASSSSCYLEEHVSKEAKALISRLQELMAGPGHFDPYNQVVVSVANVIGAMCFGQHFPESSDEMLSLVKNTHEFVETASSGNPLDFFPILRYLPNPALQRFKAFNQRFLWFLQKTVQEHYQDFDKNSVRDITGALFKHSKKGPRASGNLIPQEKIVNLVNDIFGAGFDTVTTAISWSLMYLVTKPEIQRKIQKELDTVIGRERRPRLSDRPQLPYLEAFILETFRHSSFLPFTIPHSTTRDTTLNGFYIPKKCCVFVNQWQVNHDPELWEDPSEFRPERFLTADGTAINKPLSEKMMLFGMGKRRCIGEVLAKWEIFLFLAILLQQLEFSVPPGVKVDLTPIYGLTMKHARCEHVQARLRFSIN
In words: Inhibition of CYP1A2 (unknown origin). It counts as ADME.

In data set [10] the target is Cytochrome P450 3A4 (Homo sapiens, UniProt P08684). Kind of data set: Inhibition of CYP3A4 (unknown origin). It counts as ADME.
Data set [11] deals with Cytochrome P450 2C9 (Homo sapiens, UniProt P11712). In words: Inhibition of CYP2C9 (unknown origin). In kind it is ADME.
Data set [12] is described as follows: Chemical stability of the compound at pH 8 at 10 uM after 18 hrs incubation at 65 degC. Particulars: buffer. It counts as physicochemical.
A short description of data set [13]: Apparent permeability across basolateral to apical side of human Caco2 cells. It counts as ADME, cell-based. Particulars: Caco-2. On the technique in general: Caco-2 cells form a polarised layer with tight junctions and transporters.
Data set [14] can be described thus: Apparent permeability across apical to basolateral side of human Caco2 cells. It counts as ADME, cell-based. Conditions: Caco-2.
A short description of data set [15]: Chemical stability of the compound at pH 10 at 10 uM after 18 hrs incubation at 65 degC. In kind it is physicochemical. Particulars: buffer.
Data set [16] is described as follows: Chemical stability of the compound at pH 6 at 10 uM after 18 hrs incubation at 65 degC. It counts as physicochemical. Particulars: buffer.
Data set [17] is described as follows: Fraction unbound in mouse plasma. In kind it is ADME, cell-free.
Data set [18] is described as follows: Chemical stability of the compound at pH 4 at 10 uM after 18 hrs incubation at 65 degC. It counts as physicochemical. Conditions: buffer.
Data set [19] can be described thus: Fraction unbound in rat plasma. In kind it is ADME, cell-free.
Data set [20] can be described thus: Chemical stability of the compound at pH 1 at 10 uM after 18 hrs incubation at 65 degC. In kind it is physicochemical. Conditions: buffer.

Structures are written as SMILES. Values after ≈ are worked out from the molar mass of the structure shown.

Chain of Cytochrome P450 2C19 (P33261 whole entry): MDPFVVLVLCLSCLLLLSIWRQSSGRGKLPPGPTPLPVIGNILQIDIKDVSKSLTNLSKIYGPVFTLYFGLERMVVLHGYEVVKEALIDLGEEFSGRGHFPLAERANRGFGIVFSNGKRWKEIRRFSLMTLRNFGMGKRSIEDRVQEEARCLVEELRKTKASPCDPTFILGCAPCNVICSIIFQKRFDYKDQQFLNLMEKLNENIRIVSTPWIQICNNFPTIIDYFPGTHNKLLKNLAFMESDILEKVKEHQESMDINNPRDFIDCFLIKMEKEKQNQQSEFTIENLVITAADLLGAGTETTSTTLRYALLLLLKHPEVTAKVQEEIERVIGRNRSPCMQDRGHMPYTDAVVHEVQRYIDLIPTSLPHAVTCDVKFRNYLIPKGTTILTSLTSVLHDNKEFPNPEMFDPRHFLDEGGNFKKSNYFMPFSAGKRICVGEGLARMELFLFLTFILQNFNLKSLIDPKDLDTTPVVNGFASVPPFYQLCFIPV
Chain of Voltage-gated inwardly rectifying potassium channel KCNH2 (Q12809 whole entry): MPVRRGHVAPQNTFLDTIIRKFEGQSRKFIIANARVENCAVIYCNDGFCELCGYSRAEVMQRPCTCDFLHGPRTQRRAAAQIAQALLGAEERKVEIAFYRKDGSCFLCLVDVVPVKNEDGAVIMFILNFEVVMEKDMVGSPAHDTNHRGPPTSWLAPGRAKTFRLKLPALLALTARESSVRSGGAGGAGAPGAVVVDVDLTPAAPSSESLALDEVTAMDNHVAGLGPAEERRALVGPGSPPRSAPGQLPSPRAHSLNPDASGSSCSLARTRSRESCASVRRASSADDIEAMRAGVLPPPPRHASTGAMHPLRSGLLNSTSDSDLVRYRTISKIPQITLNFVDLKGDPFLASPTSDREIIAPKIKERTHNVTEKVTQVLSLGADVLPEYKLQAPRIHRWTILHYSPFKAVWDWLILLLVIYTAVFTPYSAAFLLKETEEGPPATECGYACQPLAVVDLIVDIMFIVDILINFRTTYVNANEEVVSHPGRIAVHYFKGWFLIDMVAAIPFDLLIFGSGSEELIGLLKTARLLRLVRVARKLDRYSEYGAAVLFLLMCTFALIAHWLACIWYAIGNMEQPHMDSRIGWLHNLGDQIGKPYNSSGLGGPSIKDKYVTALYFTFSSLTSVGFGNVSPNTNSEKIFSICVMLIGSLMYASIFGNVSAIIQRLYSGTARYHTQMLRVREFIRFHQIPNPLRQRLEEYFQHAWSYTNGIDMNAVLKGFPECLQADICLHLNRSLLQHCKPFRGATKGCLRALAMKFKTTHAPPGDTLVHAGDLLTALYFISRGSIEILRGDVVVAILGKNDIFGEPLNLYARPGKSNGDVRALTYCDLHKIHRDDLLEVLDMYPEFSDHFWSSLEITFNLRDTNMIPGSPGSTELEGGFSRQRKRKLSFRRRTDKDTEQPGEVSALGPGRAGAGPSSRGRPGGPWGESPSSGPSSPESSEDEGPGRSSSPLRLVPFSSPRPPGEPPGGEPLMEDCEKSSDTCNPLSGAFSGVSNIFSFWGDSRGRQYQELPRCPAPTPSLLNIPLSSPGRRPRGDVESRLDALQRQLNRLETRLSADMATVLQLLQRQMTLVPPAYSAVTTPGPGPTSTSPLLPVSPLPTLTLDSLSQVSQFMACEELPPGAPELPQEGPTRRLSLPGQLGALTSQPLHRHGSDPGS
Chain of Cytochrome P450 2C9 (P11712 whole entry): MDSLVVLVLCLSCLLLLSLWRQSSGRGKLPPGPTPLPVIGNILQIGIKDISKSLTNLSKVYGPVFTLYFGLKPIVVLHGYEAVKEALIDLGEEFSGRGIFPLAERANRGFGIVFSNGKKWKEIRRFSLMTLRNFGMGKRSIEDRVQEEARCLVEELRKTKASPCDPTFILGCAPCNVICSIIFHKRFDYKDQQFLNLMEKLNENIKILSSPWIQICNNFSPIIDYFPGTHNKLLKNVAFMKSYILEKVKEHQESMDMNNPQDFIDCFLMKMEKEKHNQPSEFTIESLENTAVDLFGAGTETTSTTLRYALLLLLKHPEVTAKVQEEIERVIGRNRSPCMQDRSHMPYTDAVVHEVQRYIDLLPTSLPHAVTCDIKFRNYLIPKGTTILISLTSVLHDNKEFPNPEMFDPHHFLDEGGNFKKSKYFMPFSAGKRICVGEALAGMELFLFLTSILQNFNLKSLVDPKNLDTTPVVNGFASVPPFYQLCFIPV
Chain of Cytochrome P450 3A4 (P08684 whole entry): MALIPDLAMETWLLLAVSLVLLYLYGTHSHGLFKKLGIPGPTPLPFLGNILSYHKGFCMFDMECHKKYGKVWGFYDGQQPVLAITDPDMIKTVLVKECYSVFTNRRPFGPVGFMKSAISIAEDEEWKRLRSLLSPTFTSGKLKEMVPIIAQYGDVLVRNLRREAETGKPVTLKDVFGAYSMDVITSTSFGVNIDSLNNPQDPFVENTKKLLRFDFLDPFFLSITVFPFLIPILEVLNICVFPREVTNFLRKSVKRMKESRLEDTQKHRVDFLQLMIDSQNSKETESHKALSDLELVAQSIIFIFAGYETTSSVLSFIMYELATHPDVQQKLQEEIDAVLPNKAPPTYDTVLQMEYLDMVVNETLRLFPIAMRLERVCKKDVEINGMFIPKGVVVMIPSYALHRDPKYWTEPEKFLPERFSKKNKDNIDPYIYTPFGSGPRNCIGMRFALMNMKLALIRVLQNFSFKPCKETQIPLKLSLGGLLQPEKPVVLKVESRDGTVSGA
Chain of Cytochrome P450 2D6 (P10635 whole entry): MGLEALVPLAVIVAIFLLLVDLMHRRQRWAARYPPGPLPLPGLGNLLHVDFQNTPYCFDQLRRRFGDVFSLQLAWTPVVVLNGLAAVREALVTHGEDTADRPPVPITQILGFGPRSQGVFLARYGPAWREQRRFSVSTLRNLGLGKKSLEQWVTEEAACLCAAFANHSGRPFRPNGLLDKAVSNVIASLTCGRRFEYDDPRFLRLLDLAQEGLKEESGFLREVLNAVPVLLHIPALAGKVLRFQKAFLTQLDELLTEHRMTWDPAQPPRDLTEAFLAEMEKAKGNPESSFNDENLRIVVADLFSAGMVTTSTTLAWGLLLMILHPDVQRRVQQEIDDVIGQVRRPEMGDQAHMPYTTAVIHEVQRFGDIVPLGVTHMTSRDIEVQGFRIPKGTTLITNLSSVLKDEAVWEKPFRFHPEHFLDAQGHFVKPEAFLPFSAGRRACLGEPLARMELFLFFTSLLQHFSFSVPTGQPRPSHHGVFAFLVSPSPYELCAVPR

For `C[C@@H]1CN(C(=O)OC2(C)COC2)CCN1c1ncc(OCc2ccncc2C#N)cn1`, the 50% effective concentration (EC50) (in general, the concentration that produces a half-maximal response) in data set [1] is 200 nM; in data set [4], 631 nM. In addition, the solubility (as a rule, the dissolved amount per volume that the medium holds) at 24 h in data set [2] is more than 860 µM. Further, in data set [3], the microsomal CLint (usually the capacity of the preparation to metabolise the compound, expressed as a volume cleared per time) was 23 µL/min/mg.
`N#Cc1cnccc1COc1cnc(N2CCN(C(=O)OC3CCOC3)CC2)nc1` (racemic) gave a solubility at 24 h in data set [2] of 180 µM (≈ 73.9 µg/mL).
Turning to `C[C@@H]1CN(c2noc(C3(C)COC3)n2)CCN1c1ncc(OCc2ccncc2C#N)cn1`, the EC50 is 63.1 nM in data set [1] and 100 nM in [4]. Also, the logD (usually the decadic logarithm of the distribution of all forms, ionised or not, between an organic phase and buffer at a given pH) in data set [5] was 3. Moreover, the solubility at 24 h in [2] stood at 59 µM (≈ 26.5 µg/mL). The same molecule returned a microsomal CLint in [3] of 43 µL/min/mg.
In the case of `CC(C)c1nc(N2CCN(c3ncc(OCc4ccncc4C#N)cn3)[C@H](C)C2)no1`, the INH in data set [6] is 10 µM; in data set [7], more than 25 µM; in data set [8], more than 25 µM; in data set [9] it was more than 25 µM; in data set [10], more than 25 µM; in data set [11], more than 25 µM. The molecule further yielded a solubility at 24 h in data set [2] of 6 µM (≈ 2.52 µg/mL). The same molecule gave a microsomal CLint in data set [3] of 23 µL/min/mg.
Molecule `C[C@@H]1CN(C(=O)OC(C)(C)C)CCN1c1ncc(OCc2ccncc2C#N)cn1` gave a microsomal CLint in [3] of 43 µL/min/mg.
Consider `C[C@@H]1CN(c2noc(C(C)(C)O)n2)CCN1c1ncc(OCc2ccncc2C#N)cn1`, for which the concentration for a half-maximal effect (EC50) in data set [1] and in data set [4] was 631 nM throughout. Also, the logD in [5] was 2.4. Also, the solubility at 24 h in [2] came out at 8 µM (≈ 3.49 µg/mL). The microsomal CLint in [3] was found to be 14 µL/min/mg.
Consider `C[C@@H]1CN(C(=O)OC2(C(F)(F)F)COC2)CCN1c1ncc(OCc2ccncc2C#N)cn1`, for which the INH is 12 µM in data set [6]; more than 25 µM in data set [7]; more than 25 µM in data set [8]; more than 25 µM in data set [9]; more than 25 µM in data set [10]; more than 25 µM in [11]. Further, the half-life (in general, the time needed for the level to fall by half in the phase considered) at 10 µM in data set [12] is more than 240 h; in [15], 0.96 h; in data set [16], more than 240 h; in data set [18], more than 240 h; in [20], 9.84 h. Also, in [13], the Papp B→A – broadly, the apparent permeability from the basolateral to the apical side of a cell layer – was 9 ×10⁻⁶ cm/s. Further, the Papp A→B – broadly, how fast a substance crosses the layer from the apical side – in [14] was found to be 16 ×10⁻⁶ cm/s. Moreover, the EC50 is 20 nM in [1] and 158 nM in data set [4]. The logD in data set [5] was determined as 2.5. In data set [2], the solubility at 24 h stood at 110 µM (≈ 52.6 µg/mL). Besides, in data set [3], the microsomal CLint is 44 µL/min/mg. The fraction unbound (as a rule, the share of the substance not bound to proteins or other matrix) in [17] turned out to be 0.081; in [19], 0.047.
With `C[C@@H]1CN(C(=O)OC2CCOCC2)CCN1c1ncc(OCc2ccncc2C#N)cn1`, the EC50 in data set [1] is 631 nM; in data set [4], more than 7940 nM. The molecule further came in with a logD in [5] of 2.2. The molecule also had a solubility at 24 h in data set [2] of 110 µM (≈ 48.2 µg/mL). Also, the microsomal CLint in data set [3] turned out to be 37 µL/min/mg.
With `C[C@@H]1CN(c2nnc(C(F)(F)F)o2)CCN1c1ncc(OCc2ccncc2C#N)cn1`, the half-life at 10 µM in data set [12] is more than 240 h; in data set [15], 13.4 h; in data set [16] it was more than 240 h; in data set [18], more than 240 h; in [20] it was 10.8 h.
As to `CC(C)(C)OC(=O)N1CCN(c2ncc(OCc3ccc(S(C)(=O)=O)cc3)cn2)CC1`, the half-life at 10 µM in data set [12] is 2.64 h; in data set [15], less than 0.144 h; in [16] it was 2.88 h; in [18], 1.44 h; in data set [20], less than 1.8 h. In data set [2], this molecule had a solubility at 24 h of 0.03 µM (≈ 0.0135 µg/mL).
As for `CC(C)C1(OC(=O)N2CCN(c3ncc(OCc4ccncc4C#N)cn3)[C@H](C)C2)COC1`, the EC50 in data set [1] is 200 nM; in data set [4], 501 nM. The microsomal CLint in data set [3] amounted to 308 µL/min/mg.
Molecule `C[C@@H]1CN(C(=O)OC2(C(F)(F)F)CCOC2)CCN1c1ncc(OCc2ccncc2C#N)cn1` (some centres undefined) had a logD in data set [5] of 3.1. The molecule further returned a solubility at 24 h in data set [2] of 34 µM (≈ 16.7 µg/mL). For the same molecule, the microsomal CLint in data set [3] is 107 µL/min/mg.
For `C[C@@H]1CN(c2noc(C3COCCO3)n2)CCN1c1ncc(OCc2ccncc2C#N)cn1` (some centres undefined), the EC50 in [1] is 100 nM; in [4], 631 nM. This molecule also came in with a logD in data set [5] of 2.3. The solubility at 24 h in [2] was determined as 30 µM (≈ 13.9 µg/mL). The molecule further gave a microsomal CLint in data set [3] of 26 µL/min/mg.
As to `C[C@@H]1CN(C(=O)OC2COC2)CCN1c1ncc(OCc2ccncc2C#N)cn1`, the logD in data set [5] turned out to be 1.6. Besides, the solubility at 24 h in data set [2] is more than 2200 µM. In data set [3], this molecule returned a microsomal CLint of 5 µL/min/mg.

Source of the values: ChEMBL document CHEMBL3217541, “Optimisation of aqueous solubility in a series of G protein coupled receptor 119 (GPR119) agonists” (Medchemcomm, 2013).
